Test results: PubChem BioAssay AID1963969 (Molecular Pharmacology Branch, DTP, NCI, 2024)

Test system: 817829-284-R-J1-PDC multi-cell spheroid viability
Experiment: Anticancer human tumor 817829-284-R-J1-PDC patient-derived colon adenocarcinoma cell line growth inhibition [PI3K]
Details: for IC50: curve of first compound; for viability, T/C: stronger effect = lower value
Description: Combinatorial screen of targeted agents with the PI3K inhibitors inavolisib, alpelisib, duvelisib, and copanlisib in multi-cell type tumor spheroids
A high-throughput screen of multi-cell type tumor spheroids was designed to identify active combinations of targeted small molecules and PI3K pathway inhibitors. Complex spheroids include a stromal component modeled by human endothelial cells (HUVEC) and fibroblasts modeled by human mesenchymal stem cells (MSCs). The concentration ranges selected for each drug and investigational agent were based upon clinically achievable concentrations if the clinical Cmax of the agent was known.
Compounds. The drugs and investigational agents: inavolisib (NSC800729), alpelisib (NSC765974), duvelisib (NSC772469), copanlisib (NSC816437), ipatasertib (NSC767898), afuresertib (NSC778305), talazoparib (NSC767125), sapanisertib (NSC764658), selumetinib (NSC741078), tovorafenib (DAY101, NSC766906), vemurafenib (NSC761431), ravoxertinib (NSC781343), sotorasib (NSC818433), MRTX1133 (NSC 836407), abemaciclib (NSC 768073), palbociclib (NSC758247), venetoclax (NSC 766270), SY5609 (NSC837396), enzalutamide (NSC755605), and darolutamide (NSC825331), were obtained from the National Cancer Institute (NCI) Developmental Therapeutics Program Chemical Repository. The FDA-approved anticancer drug set is available from the NCI Developmental Therapeutics Program. […] The stock solutions were prepared in dimethyl sulfoxide (DMSO, Sigma-Aldrich, St. Louis, MO, cat. D2650) at 800-fold the tested concentration and stored at -70 degrees C prior to their use. All drugs and investigational agents were tested over a range starting from a high concentration at or near the clinical Cmax and decreasing in half-log increments. If the clinical Cmax for an agent had not been determined, the highest concentration tested was 10 microM.
Cell Culture. All cells were maintained in an incubator at 37 degrees C and 5% CO2 with 95% humidity. The PDC lines were cultured according to standard operating procedures established by the NCI PDMR (https://pdmr.cancer.gov/sops/default.htm). All PDCs were thawed and cultured in Matrigel-coated flasks prepared with a working solution of 1X Ham's F-12 nutrient mix, without supplementation (Invitrogen, Waltham, MA, cat. 11765054), 100 U/mL penicillin-streptomycin (Invitrogen, cat. 15140122), and 2.5% Matrigel (Corning Inc., Corning, NY, cat. 354248) for the first three passages. The 354836-022-R-J1-PDC, 475296-252-R-J1-PDC, and 997726-040-R-J2-PDC lines were cultured in 6A media, which includes advanced DMEM/F-12 (Thermo Fisher Scientific, cat. 12634028), 10 mM HEPES (Thermo Fisher Scientific, cat. 15630080), 1X GlutaMAX supplement (Thermo Fisher Scientific, cat. 35050061), 0.1 mg/mL primocin (InvivoGen, San Diego, CA, cat. ant-pm-2), 10% defined fetal bovine serum, heat inactivated (HyClone Laboratories Inc., Logan, UT, cat. SH30070.03HI), 50% L-WRN conditioned media (ATCC, cat. CRL-3276), 1.25 mM N-Acetyl-L-cysteine (Sigma-Aldrich, cat. A9165), 10 mM nicotinamide (Sigma-Aldrich, cat. N0636), 1X B-27 supplement (Thermo Fisher Scientific, cat. 17504044), 1X N-2 supplement (Thermo Fisher Scientific, cat. 17502048), and 10 microM Y-27632 dihydrochloride (Tocris Bioscience, Bristol, United Kingdom, cat. 1254). The 624824-186-R-J2-PDC line was cultured in 6C/Colon 1B media, which includes all 6A media components plus 50 ng/mL human EGF recombinant protein (Thermo Fisher Scientific, cat. PHG0311). […]

[1] = second compound 0.00316 µM, first compound 0.0316 µM
[2] = second compound 0.00316 µM, first compound 0.1 µM
[3] = second compound 0.01 µM, first compound 0.0316 µM
[4] = second compound 0.01 µM, first compound 0.1 µM
[5] = second compound 0.0316 µM, first compound 0.0316 µM
[6] = second compound 0.0316 µM, first compound 0.1 µM
[7] = second compound 0.1 µM, first compound 0.0316 µM
[8] = second compound 0.1 µM, first compound 0.1 µM
[9] = second compound 0.316 µM, first compound 0.0316 µM
[10] = second compound 0.316 µM, first compound 0.1 µM
[11] = second compound 1 µM, first compound 0.0316 µM
[12] = second compound 1 µM, first compound 0.1 µM
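Also: spheroids exposed to agents for seven days before readout.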
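For viability, T/C in this document: percent of vehicle DMSO control viability which is 100%.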

What does the source list for `CC1(C)CCC(CN2CCN(c3ccc(C(=O)NS(=O)(=O)c4ccc(NCC5CCOCC5)c([N+](=O)[O-])c4)c(Oc4cnc5[nH]ccc5c4)c3)CC2)=C(c2ccc(Cl)cc2)C1` + CC(Nc1ccc2c(c1)OCCn1cc(N3C(=O)OCC3C(F)F)nc1-2)C(N)=O?
IC50 (second compound 0.00316 µM): 4.08 µM; IC50 (second compound 0.01 µM): 3.7 µM; IC50 (second compound 0.0316 µM): 2.67 µM; IC50 (second compound 0.1 µM): 0.605 µM; IC50 (second compound 0.316 µM): 0.0316 µM; IC50 (second compound 1 µM): 2.79 µM; viability, T/C [1]: 74.4%; viability, T/C [2]: 87.8%; viability, T/C (second compound 0.00316 µM, first compound 0.316 µM): 38.3%; viability, T/C (second compound 0.00316 µM, first compound 1 µM): 71.4%; viability, T/C (second compound 0.00316 µM, first compound 3.16 µM): 62.4%; viability, T/C (second compound 0.00316 µM, first compound 10 µM): 5.89%; viability, T/C [3]: 55.4%; viability, T/C [4]: 64.8%; viability, T/C (second compound 0.01 µM, first compound 0.316 µM): 106%; viability, T/C (second compound 0.01 µM, first compound 1 µM): 69.1%; viability, T/C (second compound 0.01 µM, first compound 3.16 µM): 57.3%; viability, T/C (second compound 0.01 µM, first compound 10 µM): 5.49%; viability, T/C [5]: 66.2%; viability, T/C [6]: 107%; viability, T/C (second compound 0.0316 µM, first compound 0.316 µM): 60.8%; viability, T/C (second compound 0.0316 µM, first compound 1 µM): 65.3%; viability, T/C (second compound 0.0316 µM, first compound 3.16 µM): 49.8%; viability, T/C (second compound 0.0316 µM, first compound 10 µM): 6.29%; viability, T/C [7]: 78.9%; viability, T/C [8]: 54.8%; viability, T/C (second compound 0.1 µM, first compound 0.316 µM): 58.1%; viability, T/C (second compound 0.1 µM, first compound 1 µM): 39.4%; viability, T/C (second compound 0.1 µM, first compound 3.16 µM): 39.2%; viability, T/C (second compound 0.1 µM, first compound 10 µM): 3.75%; viability, T/C [9]: 45.7%; viability, T/C [10]: 44.6%; viability, T/C (second compound 0.316 µM, first compound 0.316 µM): 59.5%; viability, T/C (second compound 0.316 µM, first compound 1 µM): 41.2%; viability, T/C (second compound 0.316 µM, first compound 3.16 µM): 60.4%; viability, T/C (second compound 0.316 µM, first compound 10 µM): 3.08%; viability, T/C [11]: 77.2%; viability, T/C [12]: 44%; viability, T/C (second compound 1 µM, first compound 0.316 µM): 70.8%; viability, T/C (second compound 1 µM, first compound 1 µM): 59%; viability, T/C (second compound 1 µM, first compound 3.16 µM): 49%; viability, T/C (second compound 1 µM, first compound 10 µM): 6.25%

Which results are given for `Cn1ncnc1[C@H]1c2n[nH]c(=O)c3cc(F)cc(c23)N[C@@H]1c1ccc(F)cc1` + CC(Nc1ccc2c(c1)OCCn1cc(N3C(=O)OCC3C(F)F)nc1-2)C(N)=O?
IC50 (second compound 0.00316 µM): > 0.1 µM; IC50 (second compound 0.01 µM): 0.075 µM; IC50 (second compound 0.0316 µM): 0.01 µM; IC50 (second compound 0.1 µM): 0.0477 µM; IC50 (second compound 0.316 µM): 0.0121 µM; IC50 (second compound 1 µM): < 0.000316 µM; viability, T/C (second compound 0.00316 µM, first compound 0.000316 µM): 95.4%; viability, T/C (second compound 0.00316 µM, first compound 0.001 µM): 58.2%; viability, T/C (second compound 0.00316 µM, first compound 0.00316 µM): 104%; viability, T/C (second compound 0.00316 µM, first compound 0.01 µM): 35%; viability, T/C [1]: 71.1%; viability, T/C [2]: 53%; viability, T/C (second compound 0.01 µM, first compound 0.000316 µM): 75.1%; viability, T/C (second compound 0.01 µM, first compound 0.001 µM): 66%; viability, T/C (second compound 0.01 µM, first compound 0.00316 µM): 75%; viability, T/C (second compound 0.01 µM, first compound 0.01 µM): 68.3%; viability, T/C [3]: 70.2%; viability, T/C [4]: 43.3%; viability, T/C (second compound 0.0316 µM, first compound 0.000316 µM): 81.7%; viability, T/C (second compound 0.0316 µM, first compound 0.001 µM): 101%; viability, T/C (second compound 0.0316 µM, first compound 0.00316 µM): 46.9%; viability, T/C (second compound 0.0316 µM, first compound 0.01 µM): 65%; viability, T/C [5]: 53.5%; viability, T/C [6]: 43.6%; viability, T/C (second compound 0.1 µM, first compound 0.000316 µM): 65.6%; viability, T/C (second compound 0.1 µM, first compound 0.001 µM): 52.2%; viability, T/C (second compound 0.1 µM, first compound 0.00316 µM): 60.3%; viability, T/C (second compound 0.1 µM, first compound 0.01 µM): 70.9%; viability, T/C [7]: 43%; viability, T/C [8]: 46.6%; viability, T/C (second compound 0.316 µM, first compound 0.000316 µM): 40.1%; viability, T/C (second compound 0.316 µM, first compound 0.001 µM): 65.8%; viability, T/C (second compound 0.316 µM, first compound 0.00316 µM): 61.2%; viability, T/C (second compound 0.316 µM, first compound 0.01 µM): 39.4%; viability, T/C [9]: 49.8%; viability, T/C [10]: 33.3%; viability, T/C (second compound 1 µM, first compound 0.000316 µM): 31.9%; viability, T/C (second compound 1 µM, first compound 0.001 µM): 60.9%; viability, T/C (second compound 1 µM, first compound 0.00316 µM): 43.1%; viability, T/C (second compound 1 µM, first compound 0.01 µM): 42.3%; viability, T/C [11]: 36.7%; viability, T/C [12]: 20.8%
